Test results from ChEMBL document CHEMBL4818984, “Kojic acid-natural product conjugates as mushroom tyrosinase inhibitors” (Eur J Med Chem, 2020).
Activity calls are given as the source filed them. The rule behind the calls is not given here.

Tests used:
Tyrosinase [1] = target: T1, Tyrosinase (Agaricus bisporus, UniProt O42713); assay: Inhibition of mushroom tyrosinase assessed as reduction in dopachrome formation using L-DOPA as substrate by ELISA
T1 sequence (O42713 whole entry): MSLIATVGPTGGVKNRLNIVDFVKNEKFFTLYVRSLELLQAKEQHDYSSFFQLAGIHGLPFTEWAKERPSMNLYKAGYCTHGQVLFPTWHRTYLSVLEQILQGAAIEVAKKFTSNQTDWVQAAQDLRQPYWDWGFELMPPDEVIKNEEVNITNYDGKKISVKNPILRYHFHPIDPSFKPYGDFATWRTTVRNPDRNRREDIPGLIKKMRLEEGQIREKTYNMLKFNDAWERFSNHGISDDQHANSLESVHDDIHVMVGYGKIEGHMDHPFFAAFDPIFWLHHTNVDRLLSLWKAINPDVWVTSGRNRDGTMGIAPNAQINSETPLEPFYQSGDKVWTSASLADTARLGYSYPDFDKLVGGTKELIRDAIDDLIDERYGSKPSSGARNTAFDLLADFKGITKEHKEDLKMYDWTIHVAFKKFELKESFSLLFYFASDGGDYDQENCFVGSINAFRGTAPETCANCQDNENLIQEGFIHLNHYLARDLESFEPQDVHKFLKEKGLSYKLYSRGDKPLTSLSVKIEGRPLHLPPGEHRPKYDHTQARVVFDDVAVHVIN

Tyrosinase [2] = target: T1, Tyrosinase; assay: Competitive inhibition of mushroom tyrosinase using L-DOPA as substrate by Lineweaver-Burk double reciprocal plot analysis
[3] = target: T2, Tyrosinase (Agaricus bisporus) (UniProt O42713); assay: Non-competitive inhibition of mushroom tyrosinase using L-DOPA as substrate by Lineweaver-Burk double reciprocal plot analysis
T2 sequence (whole entry): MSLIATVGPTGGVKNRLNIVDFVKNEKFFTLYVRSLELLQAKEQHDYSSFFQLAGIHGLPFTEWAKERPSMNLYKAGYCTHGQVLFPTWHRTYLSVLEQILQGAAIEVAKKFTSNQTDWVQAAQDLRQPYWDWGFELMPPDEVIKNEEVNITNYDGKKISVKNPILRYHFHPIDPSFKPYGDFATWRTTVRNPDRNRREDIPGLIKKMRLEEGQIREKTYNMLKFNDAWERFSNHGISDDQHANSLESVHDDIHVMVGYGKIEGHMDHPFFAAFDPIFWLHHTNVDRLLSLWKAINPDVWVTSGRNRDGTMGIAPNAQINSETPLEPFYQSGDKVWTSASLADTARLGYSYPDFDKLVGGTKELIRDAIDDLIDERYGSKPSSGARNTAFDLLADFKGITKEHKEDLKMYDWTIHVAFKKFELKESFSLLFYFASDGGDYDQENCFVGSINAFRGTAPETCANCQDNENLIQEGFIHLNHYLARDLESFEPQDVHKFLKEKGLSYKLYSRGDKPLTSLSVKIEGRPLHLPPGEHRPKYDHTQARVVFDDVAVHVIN

[4] = target: T2, Tyrosinase (Agaricus bisporus); assay: Inhibition of mushroom tyrosinase using L-DOPA as substrate at 0.5 uM in presence of 0.005 to 1.2 mM Cu2+ by ELISA
[5] = Antioxidant activity assessed as DPPH radical scavenging activity at 10 uM; format: functional
B16-F10 [6] = assay: Antimelanogenic activity against mouse B16-F10 cells assessed as reduction of melanin content at 5 uM measured after 24 hrs by microplate reader assay; format: functional, cell-based
[7] = target: T2, Tyrosinase (Agaricus bisporus); assay: Potency index, ratio of kojic acid IC50 to compound IC50 for inhibition of mushroom tyrosinase using L-DOPA as substrate by ELISA
B16-F10 [8] = assay: cells; conditions: Mus musculus
Description: Cytotoxicity against mouse B16-F10 cells assessed as reduction in cell viability by MTT assay

HFF = assay: cells; conditions: Homo sapiens
Description: Cytotoxicity against human HFF cells assessed as reduction in cell viability by MTT assay

Tyrosinase [9] = target: T1, Tyrosinase; assay: Inhibition of mushroom tyrosinase using L-tyrosine as substrate measured after 30 mins by microplate reader analysis
Tyrosinase [10] = target: T1, Tyrosinase; assay: Inhibition of mushroom tyrosinase using L-tyrosine as substrate by HPLC analysis

Row | Compound | IC50 (Tyrosinase [1]) [nM] | Activity [5] | other results
1 | O=c1cc(OCc2cn(Cc3cc(=O)c(O)co3)nn2)c2ccccc2o1 | 20 | inactive | Ki (Tyrosinase [2]): 40 nM; Kis [3]: 0.12 µM; inhibition [4]: inactive; Activity (B16-F10 [6]): Active; Ratio IC50 [7]: > 460; IC50 (B16-F10 [8]): 143000 nM; IC50 (HFF): 194000 nM
2 | COc1cc(C=O)ccc1OCc1cn(Cc2cc(=O)c(O)co2)nn1 | 1990 | inactive | 
3 | Oc1ccc2c(c1)OCO2 |  |  | IC50 (Tyrosinase [9]): 6700 nM
4 | O=C(O)c1ccc(OCc2cn(Cc3cc(=O)c(O)co3)nn2)cc1 | 3130 | inactive | 
5 | COC(=O)c1ccc(OCc2cn(Cc3cc(=O)c(O)co3)nn2)cc1 | 460 | inactive | 
6 | COc1cc(C=O)cc(OC)c1OCc1cn(Cc2cc(=O)c(O)co2)nn1 | 3750 | inactive | 
7 | COc1ccc(C=O)cc1O [ISOVANILLIN] |  |  | IC50 (Tyrosinase [10]): > 500000 nM
8 | Cc1ccc(C(C)C)cc1OCc1cn(Cc2cc(=O)c(O)co2)nn1 | 70 | inactive | Ki (Tyrosinase [2]): 90 nM; Kis [3]: 0.21 µM; Activity (B16-F10 [6]): Active; Ratio IC50 [7]: 133; IC50 (B16-F10 [8]): 408000 nM; IC50 (HFF): 193000 nM
9 | COc1ccc(C=O)cc1OCc1cn(Cc2cc(=O)c(O)co2)nn1 | 1950 | inactive | 
10 | C/C=C/c1ccc(OCc2cn(Cc3cc(=O)c(O)co3)nn2)c(OC)c1 | 520 | inactive | 
